According to patent US8252748B2, “Peptide derived from neurotensin receptor 3 and use thereof in the treatment of psychiatric diseases” (Centre National de la Recherche Scientifique—CNRS, priority 2007, dated 2012):
No end group written: not given here.

System: mouse (C57Black/J)
Assay: Conditioned motility suppression test (CMST)
Format: in vivo
Conditions: propeptide IV 100 μl at 1 μM per animal; 30 min after injection
Text: The inventors conducted three types of behavioral experiments that are regarded as classical for determining the antidepressant activity of a substance (Nestler E. J., Gould E., Manji H., Buncan M., Duman R. S., Greshenfeld H. K., Hen, R. et al. “Preclinical models: status of basic research in depression” Biol Psychiatry. 15, 503-528 (2002) (20) and Cryan, J. & Holmes, A. “The ascent of mouse: advances in modeling human depression and anxiety” Nat Rev Drug Discov. 4, 775-790 (2005) (21)). The effects of the propeptide of the present invention were compared with those of the saline solution in which it is dissolved and with those of fluoxetine, one of the most-used antidepressants in clinical practice. The mouse strain used is C57Black/J strain. TREK-1^−/− mice were also measured in these various tests.
In the next two tests, the propeptide of the present invention was administered by the IV route at a rate of 100 μl at 1 μM per animal.
C. Conditioned Motility Suppression Test (CMST) (see Daugé, V., Sebret, A., Beslot, F., Matsui, T., & Rogues B. “Behavioral profile of CCK2 receptor-deficient mice” Neuropsychopharmacol; 25: 690-698 (2001) (23).
The experiment consists of conditioning the mouse on day 1, and measuring the effects of the substances on day 2.
On day 1, each mouse is placed in a box where the floor is a metal grille connected to an electric stimulator. […]

Sequence: APLPRWSGPIGVSWGLR [propeptide, APLPRWSGPIGVSWGLR]
- motility relative to untreated shocked mice: 7 times greater
